Measurements: the supplement of paper PMC10702517
± gives the standard deviation.

What was measured:
[1] = chemical recovery from spiked human plasma; higher = better extraction; settings: pooled human plasma
[2] = chemical recovery into PDMS from spiked human plasma; higher = better extraction; settings: pooled human plasma, extraction method: PES with PDMS
[3] = chemical recovery by SPE of plasma after PDMS sampling; higher = better extraction; settings: pooled human plasma, extraction method: HLB SPE of plasma after PES
[4] = extraction method: SPE only (HLB 96-well), PES comparison experiment
[5] = extraction method: solvent precipitation (ACN + hexane)
[6] = extraction method: SPE only (HLB 96-well)
[7] = extraction method: PES+SPE (3 d PDMS equilibration then HLB SPE)
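Wherever chemical recovery by SPE of plasma after PDMS sampling is given: over 400 spiked chemicals quantified by LC-HRMS or GC-HRMS via internal standard calibration, recovery relative to spike mix added to unspiked plasma extract to correct matrix effects.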

chemical recovery [1, 5]	chemical recovery by SPE of plasma ([3]; equilibration time (d): 6)	chemical recovery [1, 6]	Compound	chemical recovery [1, 4]	chemical recovery into PDMS ([2]; equilibration time (d): 1)	chemical recovery into PDMS ([2]; equilibration time (d): 3)	chemical recovery into PDMS ([2]; equilibration time (d): 6)	chemical recovery by SPE of plasma ([3]; equilibration time (d): 1)	chemical recovery by SPE of plasma ([3]; equilibration time (d): 3)	chemical recovery [1, 7]
78.8 ± 5.1%	61.6 ± 2.4%	45.3 ± 8.7%	Cc1cc(O)cc(C)c1[S+](C)[O-] (stereo not drawn) [Methiocarb-sulfoxide phenol]	54.3 ± 6.8%	18.7 ± 0.39%	20.6 ± 0.91%	20.7 ± 1.2%	66.4 ± 8.3%	66.7 ± 4.1%	
	25 ± 8.3%		Cn1ncc(N)c(Cl)c1=O [Methyldesphenylchloridazon]	35.8 ± 1.2%	1.07 ± 0.26%	1.44 ± 0.31%	1.24 ± 1.1%	24.3 ± 8.3%	21.3 ± 7.1%	
68 ± 24%		19.9 ± 3.2%	CS(=O)(=O)c1ccccc1 [Methylphenylsulfone]		94.1 ± 26%	98.5 ± 33%	100 ± 28%		104 ± 9.2%	
73.7 ± 3.3%	30.3 ± 2.7%	35.7 ± 1.4%	CCc1cccc(C)c1N(C(=O)C(=O)O)C(C)COC (stereo not drawn) [Metolachlor OA]	54.1 ± 5.2%	19 ± 0.56%	21.5 ± 1.7%	21 ± 0.44%	32.4 ± 6.7%		40.1 ± 4.2%
	34.7 ± 5.3%	35.6 ± 3.7%	CCc1cccc(C)c1N(C(=O)CS(=O)(=O)O)[C@@H](C)C(=O)O [Metolachlor-NOA 413-173]	22.7 ± 9.6%	1.97 ± 4.4%	9.48 ± 1.4%	7.51 ± 7%		27.8 ± 9.2%	
85.3 ± 8.5%	0.117 ± 0.082%	43.2 ± 6.1%	Clc1ccc(COC(Cn2ccnc2)c2ccc(Cl)cc2Cl)c(Cl)c1 (stereo not drawn) [Miconazole]	40.4 ± 10%	33.6 ± 2.4%	34.9 ± 3.2%	31.5 ± 2.8%	0.659 ± 0.14%	0.405 ± 0.14%	
	8.54 ± 5.7%	71.5 ± 26%	CCCCCCCCCCCCCC[N+](C)(C)[O-] [N,N-Dimethyltetradecylamine-N-oxide]	42.7 ± 8.4%	0.599 ± 0.55%	1.2 ± 0.35%	1.01 ± 0.26%	15.7 ± 3.1%	12.5 ± 4.9%	
	0.0207 ± 0.085%		CCCCCCCCCCCCCCN(C)C [N,N-Dimethyltetradecylamine]	39.3 ± 8.7%		0.0161 ± 0.022%		0.241 ± 0.23%	0.0666 ± 0.015%	
74.8 ± 3.3%	0.297 ± 0.037%	51.9 ± 3.6%	c1ccc2sc(NC3CCCCC3)nc2c1 [N-Cyclohexyl-2-benzothiazole-amine]	42.4 ± 6.5%	32.4 ± 2.2%	34 ± 3%	34.2 ± 1.6%	0.591 ± 0.065%	0.595 ± 0.073%	98.9 ± 11%
68.2 ± 2.2%	18.8 ± 3%	46.9 ± 1.4%	CCNS(=O)(=O)c1ccccc1C [N-Ethyl-o-toluenesulfonamide]	52.6 ± 6.1%	23.5 ± 1.3%	23.2 ± 2.6%	26.3 ± 2.6%	19.8 ± 2.8%	25.7 ± 2.5%	52.7 ± 7.9%
83.2 ± 5.3%	1.86 ± 0.51%	45.8 ± 14%	c1ccc(Nc2cccc3ccccc23)cc1 [N-Phenyl-1-naphthylamine]	18.7 ± 4.1%	4.16 ± 1.3%	6.12 ± 3.5%	6.6 ± 1.1%	2.23 ± 1.6%	2.7 ± 0.69%	
52.1 ± 2.9%	2.81 ± 0.16%	42.25 ± 0.22%	CCOC(=O)C1=C(C)NC(C)=C(C(=O)OC)C1c1cccc([N+](=O)[O-])c1 (stereo not drawn) [Nitrendipin]	51.5 ± 5.5%	13.4 ± 0.56%	17.4 ± 3.6%	18.6 ± 1.1%	7.61 ± 0.89%	5.18 ± 0.19%	37.1 ± 7.9%
	3.48 ± 6%		C#C[C@]1(O)CC[C@H]2[C@@H]3CCC4=CC(=O)CC[C@@H]4[C@H]3CC[C@@]21C [Norethindrone]	54.2 ± 6.8%	40.1 ± 2.1%	46.1 ± 2.3%	47.6 ± 1.2%		4.09 ± 7.1%	

Compound	chemical recovery [1, 5]	chemical recovery by SPE of plasma ([3]; equilibration time (d): 6)	chemical recovery [1, 6]	chemical recovery [1, 4]	chemical recovery into PDMS ([2]; equilibration time (d): 1)	chemical recovery into PDMS ([2]; equilibration time (d): 3)	chemical recovery into PDMS ([2]; equilibration time (d): 6)	chemical recovery by SPE of plasma ([3]; equilibration time (d): 1)	chemical recovery by SPE of plasma ([3]; equilibration time (d): 3)	chemical recovery [1, 7]
CC1(C)CCC(Cc2ccc(Cl)cc2)C1(O)Cn1cncn1 (stereo not drawn) [Metconazole]	74.3 ± 3.4%	1.11 ± 0.42%		46.3 ± 8.6%	39.4 ± 2.5%	41.9 ± 2.7%	41.91 ± 0.15%	2.06 ± 0.36%	1.76 ± 0.4%	
CCc1cccc(C)c1N(C(=O)CCl)C(C)COC (stereo not drawn) [Metolachlor]		0.323 ± 0.0041%	38.1 ± 1.9%	47.6 ± 6.7%	37.3 ± 1.4%	40.7 ± 3.2%	40.6 ± 1.1%	0.504 ± 0.043%	0.63 ± 0.12%	37.9 ± 5.3%
CSc1nnc(C(C)(C)C)c(=O)n1N [Metribuzin]	71.8 ± 2.9%	10.4 ± 1.8%	49 ± 2.9%	54.2 ± 7.9%	25 ± 2.2%	25.2 ± 1.9%	29.4 ± 1.2%	10.9 ± 1.3%	15.3 ± 1.4%	49.7 ± 7.4%
CN(C)c1ccc(C(=O)c2ccc(N(C)C)cc2)cc1 [Michler's ketone]		0.502 ± 0.091%	34.4 ± 1.9%		17.2 ± 9.7%	15.5 ± 10%	16.7 ± 4.2%	1.38 ± 0.41%	1.1 ± 0.12%	
CC[C@@]1([C@@H]2O[C@@H]([C@H]3O[C@@](O)(CO)[C@H](C)C[C@@H]3C)C[C@@H]2C)CC[C@H]([C@]2(C)CC[C@]3(C[C@H](O)[C@@H](C)[C@@H]([C@@H](C)[C@@H](OC)[C@H](C)C(=O)O)O3)O2)O1 [Monensin]	1.03 ± 1.8%	1.33 ± 0.27%		29.9 ± 6.6%	37.1 ± 2.8%	38.6 ± 0.52%	37.8 ± 2.2%	3.19 ± 0.8%	2.26 ± 0.39%	
CCCCC(C#N)(Cn1cncn1)c1ccc(Cl)cc1 (stereo not drawn) [Myclobutanil]	79.3 ± 2.2%			48.5 ± 8.4%	38.4 ± 1.9%	42.1 ± 3.6%	41.6 ± 0.64%	1.71 ± 0.26%	1.32 ± 0.3%	
c1ccc2c(c1)[nH]c1cnccc12 [Norharmane]	77.7 ± 5.3%	1.79 ± 0.061%	39.6 ± 7.7%	48 ± 6.7%	24.8 ± 1.2%	28.3 ± 0.84%	29 ± 1.6%	3.67 ± 0.43%	2.75 ± 0.47%	25.1 ± 5.9%
CNC(=O)CSP(=O)(OC)OC [Omethoate]			12.4 ± 5.1%	40.1 ± 8.6%	4.04 ± 3.2%	5.92 ± 3.5%	5.94 ± 4.2%		13.5 ± 2.3%	
CCCN(CCC)c1c([N+](=O)[O-])cc(S(N)(=O)=O)cc1[N+](=O)[O-] [Oryzalin]		27.7 ± 1.7%		49.6 ± 5.5%	6.21 ± 0.56%	10 ± 0.76%	11.1 ± 1.2%	39.2 ± 5.2%	33.9 ± 3%	
O=C1Nc2ccc(Cl)cc2C(c2ccccc2)=NC1O (stereo not drawn) [Oxazepam]	73.9 ± 3.5%	27.7 ± 1.9%	38 ± 3.2%	46.6 ± 6%	1.81 ± 0.18%	3.65 ± 0.36%	3.9 ± 0.52%	29.1 ± 4%	30.4 ± 2.4%	41.3 ± 2.3%
Clc1ccc(Cl)c(-c2ccccc2Cl)c1 [PCB18]		0.249 ± 0.43%		10 ± 1.9%	48.2 ± 2.5%	50.3 ± 10%	46.5 ± 10%	0.716 ± 0.48%	0.693 ± 0.67%	
Clc1ccc(Cl)c(-c2cccc(Cl)c2Cl)c1 [PCB44]		1.42 ± 0.29%	3.94 ± 0.74%	18.4 ± 4%	83.5 ± 2.1%	90.2 ± 12%	99.1 ± 11%	1.35 ± 0.87%	1.34 ± 0.13%	44 ± 11%
Clc1ccc(Cl)c(-c2cc(Cl)c(Cl)cc2Cl)c1 [PCB101]	91.2 ± 10%	1.45 ± 0.38%	1.78 ± 0.57%	14 ± 2.6%	88.4 ± 5.7%	98.4 ± 14%	96.9 ± 3.5%	1.75 ± 1.3%	1.62 ± 0.22%	54.76 ± 0.33%
